# pIC50: −log10 of the molar value. Active and inactive are the calls of the source. The rule behind the calls is not given here.
# Molecular target: T1, Metacaspase-2 (Trypanosoma brucei, UniProt Q8T8E7)
# T1 sequence (Q8T8E7 whole entry): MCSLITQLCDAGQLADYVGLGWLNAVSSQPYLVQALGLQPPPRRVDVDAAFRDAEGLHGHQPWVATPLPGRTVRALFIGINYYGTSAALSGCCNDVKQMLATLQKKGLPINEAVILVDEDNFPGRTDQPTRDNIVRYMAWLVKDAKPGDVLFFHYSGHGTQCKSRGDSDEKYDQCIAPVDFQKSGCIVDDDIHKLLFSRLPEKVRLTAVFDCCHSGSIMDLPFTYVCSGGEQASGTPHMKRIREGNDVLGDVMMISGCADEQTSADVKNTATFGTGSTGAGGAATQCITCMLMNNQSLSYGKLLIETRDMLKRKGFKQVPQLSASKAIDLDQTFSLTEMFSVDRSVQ
# Experiment: Inhibition of Trypanosoma brucei MAC2
row,Compound,pIC50
1,N=C(N)NCCC[C@H](NC(=O)OCc1ccccc1)C(=O)c1nc2ccccc2s1,6.22
2,N=C(N)NCCC[C@@H](/C=C/S(=O)(=O)c1ccccc1)NC(=O)OCc1ccccc1,5.41
3,N#CCN(C(=O)OCc1ccccc1)C1CCNCC1,< 4.00
4,N#CCN(CCCCO)C(=O)OCc1ccccc1,< 4.00
5,N#C[C@H](Cc1ccc(NC(=N)N)cc1)NC(=O)OCc1ccccc1,< 4.00
6,CC(C)C(NC(=O)OCc1ccccc1)C(=O)N[C@@H](CCCNC(=N)N)C(=O)c1nc2ccccc2s1 (stereo partly drawn),5.96
7,N=C(N)NCCC[C@H](NC(=O)OCc1ccccc1)C(=O)c1ccccn1,4.21
8,N#CCN(CCCCN1CCN(C(c2ccc(F)cc2)c2ccc(F)cc2)CC1)C(=O)OCc1ccccc1,< 4.00
9,CC(C)CC(NC(=O)OCc1ccccc1)C(=O)N[C@@H](CCCNC(=N)N)C(=O)c1nc2ccccc2s1 (stereo partly drawn),5.85
10,N#CCN(CCCCN1CCCCC1)C(=O)OCc1ccccc1,< 4.00

# System: Trypanosoma brucei brucei
# Experiment: Antiparasitic activity against Trypanosoma brucei brucei bloodstream form
# Type: functional, organism-based
row,Compound,pIC50
1,N=C(N)NCCC[C@H](NC(=O)OCc1ccccc1)C(=O)c1nc2ccccc2s1,4.48
2,N=C(N)NCCC[C@@H](/C=C/S(=O)(=O)c1ccccc1)NC(=O)OCc1ccccc1,4.34
3,N#CCN(C(=O)OCc1ccccc1)C1CCNCC1,4.49
4,N#CCN(CCCCO)C(=O)OCc1ccccc1,< 4.19
5,N#C[C@H](Cc1ccc(NC(=N)N)cc1)NC(=O)OCc1ccccc1,< 4.19
6,CC(C)C(NC(=O)OCc1ccccc1)C(=O)N[C@@H](CCCNC(=N)N)C(=O)c1nc2ccccc2s1 (stereo partly drawn),4.95
7,N=C(N)NCCC[C@H](NC(=O)OCc1ccccc1)C(=O)c1ccccn1,< 4.19
8,N#CCN(CCCCN1CCN(C(c2ccc(F)cc2)c2ccc(F)cc2)CC1)C(=O)OCc1ccccc1,5.68
9,CC(C)CC(NC(=O)OCc1ccccc1)C(=O)N[C@@H](CCCNC(=N)N)C(=O)c1nc2ccccc2s1 (stereo partly drawn),5.24
10,N#CCN(CCCCN1CCCCC1)C(=O)OCc1ccccc1,< 4.19

# System: Trypanosoma cruzi
# Experiment: Antiparasitic activity against Trypanosoma cruzi amastigotes
# Type: functional, organism-based
row,Compound,pIC50
1,N=C(N)NCCC[C@H](NC(=O)OCc1ccccc1)C(=O)c1nc2ccccc2s1,4.68
2,N=C(N)NCCC[C@@H](/C=C/S(=O)(=O)c1ccccc1)NC(=O)OCc1ccccc1,4.72
3,N#CCN(C(=O)OCc1ccccc1)C1CCNCC1,4.46
4,N#CCN(CCCCO)C(=O)OCc1ccccc1,< 4.19
5,N#C[C@H](Cc1ccc(NC(=N)N)cc1)NC(=O)OCc1ccccc1,4.57
6,CC(C)C(NC(=O)OCc1ccccc1)C(=O)N[C@@H](CCCNC(=N)N)C(=O)c1nc2ccccc2s1 (stereo partly drawn),5.14
7,N=C(N)NCCC[C@H](NC(=O)OCc1ccccc1)C(=O)c1ccccn1,< 4.19
8,N#CCN(CCCCN1CCN(C(c2ccc(F)cc2)c2ccc(F)cc2)CC1)C(=O)OCc1ccccc1,5.59
9,CC(C)CC(NC(=O)OCc1ccccc1)C(=O)N[C@@H](CCCNC(=N)N)C(=O)c1nc2ccccc2s1 (stereo partly drawn),5.25
10,N#CCN(CCCCN1CCCCC1)C(=O)OCc1ccccc1,< 4.19

# System: Leishmania infantum
# Experiment: Antiparasitic activity against Leishmania infantum amastigotes
# Type: functional, organism-based
row,Compound,pIC50
1,N=C(N)NCCC[C@H](NC(=O)OCc1ccccc1)C(=O)c1nc2ccccc2s1,< 4.19
2,N=C(N)NCCC[C@@H](/C=C/S(=O)(=O)c1ccccc1)NC(=O)OCc1ccccc1,< 4.19
3,N#CCN(C(=O)OCc1ccccc1)C1CCNCC1,< 4.19
4,N#CCN(CCCCO)C(=O)OCc1ccccc1,< 4.19
5,N#C[C@H](Cc1ccc(NC(=N)N)cc1)NC(=O)OCc1ccccc1,< 4.19
6,CC(C)C(NC(=O)OCc1ccccc1)C(=O)N[C@@H](CCCNC(=N)N)C(=O)c1nc2ccccc2s1 (stereo partly drawn),< 4.19
7,N=C(N)NCCC[C@H](NC(=O)OCc1ccccc1)C(=O)c1ccccn1,< 4.19
8,N#CCN(CCCCN1CCN(C(c2ccc(F)cc2)c2ccc(F)cc2)CC1)C(=O)OCc1ccccc1,5.23
9,CC(C)CC(NC(=O)OCc1ccccc1)C(=O)N[C@@H](CCCNC(=N)N)C(=O)c1nc2ccccc2s1 (stereo partly drawn),4.43
10,N#CCN(CCCCN1CCCCC1)C(=O)OCc1ccccc1,< 4.19

# System: Plasmodium falciparum
# Experiment: Antiparasitic activity against Plasmodium falciparum ring stage and schizont
# Type: functional, organism-based
row,Compound,pIC50
1,N=C(N)NCCC[C@H](NC(=O)OCc1ccccc1)C(=O)c1nc2ccccc2s1,5.10
2,N=C(N)NCCC[C@@H](/C=C/S(=O)(=O)c1ccccc1)NC(=O)OCc1ccccc1,5.47
3,N#CCN(C(=O)OCc1ccccc1)C1CCNCC1,4.55
4,N#CCN(CCCCO)C(=O)OCc1ccccc1,< 4.19
5,N#C[C@H](Cc1ccc(NC(=N)N)cc1)NC(=O)OCc1ccccc1,4.60
6,CC(C)C(NC(=O)OCc1ccccc1)C(=O)N[C@@H](CCCNC(=N)N)C(=O)c1nc2ccccc2s1 (stereo partly drawn),5.48
7,N=C(N)NCCC[C@H](NC(=O)OCc1ccccc1)C(=O)c1ccccn1,< 4.19
8,N#CCN(CCCCN1CCN(C(c2ccc(F)cc2)c2ccc(F)cc2)CC1)C(=O)OCc1ccccc1,5.12
9,CC(C)CC(NC(=O)OCc1ccccc1)C(=O)N[C@@H](CCCNC(=N)N)C(=O)c1nc2ccccc2s1 (stereo partly drawn),5.59
10,N#CCN(CCCCN1CCCCC1)C(=O)OCc1ccccc1,5.16

# System: MRC5
# Experiment: Cytotoxicity against human MRC5 cells
# Type: cell-based
row,Compound,pIC50
1,N=C(N)NCCC[C@H](NC(=O)OCc1ccccc1)C(=O)c1nc2ccccc2s1,< 4.19
2,N=C(N)NCCC[C@@H](/C=C/S(=O)(=O)c1ccccc1)NC(=O)OCc1ccccc1,< 4.19
3,N#CCN(C(=O)OCc1ccccc1)C1CCNCC1,< 4.19
4,N#CCN(CCCCO)C(=O)OCc1ccccc1,< 4.19
5,N#C[C@H](Cc1ccc(NC(=N)N)cc1)NC(=O)OCc1ccccc1,< 4.19
6,CC(C)C(NC(=O)OCc1ccccc1)C(=O)N[C@@H](CCCNC(=N)N)C(=O)c1nc2ccccc2s1 (stereo partly drawn),4.49
7,N=C(N)NCCC[C@H](NC(=O)OCc1ccccc1)C(=O)c1ccccn1,< 4.19
8,N#CCN(CCCCN1CCN(C(c2ccc(F)cc2)c2ccc(F)cc2)CC1)C(=O)OCc1ccccc1,4.95
9,CC(C)CC(NC(=O)OCc1ccccc1)C(=O)N[C@@H](CCCNC(=N)N)C(=O)c1nc2ccccc2s1 (stereo partly drawn),4.54
10,N#CCN(CCCCN1CCCCC1)C(=O)OCc1ccccc1,< 4.19

# Molecular target: T2, Caspase-3 (Homo sapiens) (UniProt P42574)
# T2 sequence (whole entry): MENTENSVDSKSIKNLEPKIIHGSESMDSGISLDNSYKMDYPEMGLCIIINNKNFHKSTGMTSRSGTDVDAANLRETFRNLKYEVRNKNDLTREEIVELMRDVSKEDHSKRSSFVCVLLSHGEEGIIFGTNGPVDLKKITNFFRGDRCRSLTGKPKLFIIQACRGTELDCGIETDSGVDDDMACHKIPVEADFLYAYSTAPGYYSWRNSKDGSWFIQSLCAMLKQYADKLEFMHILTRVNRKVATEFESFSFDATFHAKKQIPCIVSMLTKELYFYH
# Experiment: Inhibition of human caspase 3
row,Compound,inhibition
1,N=C(N)NCCC[C@H](NC(=O)OCc1ccccc1)C(=O)c1nc2ccccc2s1,inactive

# Molecular target: T3, Metacaspase-3 (Trypanosoma brucei) (UniProt Q8T8E6)
# T3 sequence (whole entry): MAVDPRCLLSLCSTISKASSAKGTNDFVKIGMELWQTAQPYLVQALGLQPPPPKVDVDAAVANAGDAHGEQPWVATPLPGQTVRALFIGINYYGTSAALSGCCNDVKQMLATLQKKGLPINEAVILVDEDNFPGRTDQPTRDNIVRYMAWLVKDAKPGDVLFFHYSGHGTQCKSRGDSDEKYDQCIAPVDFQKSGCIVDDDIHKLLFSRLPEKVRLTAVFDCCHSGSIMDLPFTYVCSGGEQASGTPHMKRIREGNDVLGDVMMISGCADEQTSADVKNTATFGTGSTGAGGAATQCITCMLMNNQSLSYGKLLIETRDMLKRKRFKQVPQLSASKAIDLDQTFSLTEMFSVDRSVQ
# Experiment: Inhibition of Trypanosoma brucei MAC3
row,Compound,inhibition
1,N=C(N)NCCC[C@H](NC(=O)OCc1ccccc1)C(=O)c1nc2ccccc2s1,Active
2,N=C(N)NCCC[C@H](NC(=O)OCc1ccccc1)C(=O)c1ccccn1,Active

# Source: ChEMBL document CHEMBL1155398, “Design and evaluation of Trypanosoma brucei metacaspase inhibitors” (Bioorg Med Chem Lett, 2010)
